Reference: patent US12415939B2, “Nano-adhesive and surface primer compound and use thereof” (The Regents of the University of California, priority 2015, dated 2025)
Several values for one entry are separate records, joined by “and”; a condition that tells them apart may be missing. Equal values may be shown once.

Key:
Assay type in all cases: physicochemical
[1] = Surface forces apparatus (SFA) cohesion/adhesion between thin films on mica
[2] = Cyclic voltammetry of catechol oxidation; conditions: for E1/2: DI water, scan rate 1 mV s−1, Ag/AgCl reference
Method: (§1) Cyclic voltammetry was performed on a Versastat 3 potentiostat from Ametek Co. These analyses were carried out using a three-electrode cell: a Pt wire as the counter electrode, an Ag/AgCl reference electrode, and a Carbon paste electrode (CPE) served as the working electrode. CPE is the best choice for adhesive materials because of its ability to be completely polished before each experiment. Catechol auto-oxidation was avoided by performing all electrochemical experiments with degassed deionized water in a glove bag under argon. Scan rate 1 mV s-1 was used for all experiments. CV of 5 mM synthesized polymers and 5 mM methyl catechol, a simple catechol-containing compound, were compared. Oxidation of Catechol carrying molecules occurred at more positive potentials than methyl catechol, indicating the unique structure of the dispersions provide shielding effects that stabilized catechol groups (FIG. 3).
Cyclic voltammetry was performed on a Versastat 3 potentiostat from Ametek Co. (Berwyn, PA). These analyses were carried out using a three-electrode cell: a Pt wire as the counter electrode, an Ag/AgCl reference electrode, and a Carbon paste electrode (CPE) served as the working electrode. CPE is the best choice for adhesive materials because of its ability to be completely polished before each experiment.
as §1, with “s^−1” for “s-1”, “molecules” for “polymers”, “groups. Z-Cat-Ben with an oxidation peak at 840 mV is more resistant to oxidation than the other species” for “groups”, “42).” for “3).”

[3] = AFM force between Z-Cat-Ben SAM on silica and a silica bead; conditions: SAM on silica from 5 mM
Source text: The pristine self-assemble of the Z-Cat-Ben molecules on silica surface exposed the aromatic residues to the air-water interface resulting in a low interfacial energy between a silica bead and the SAM surface as measured with the AFM technique (Wad˜0.07 mJ/m^2, see FIG. 47). This is unlike the strong adhesion of SAMs exposing catechol residues to the air water interface that bind to silica surface through hydrogen bonding interactions (Wad˜7.7 mJ/m^2).

[4] = Z-Cat-C10 0.1 mg ml−1 sample in DI water

Row | SMILES | adhesion on mica relative to mfp-5 and mfp-amyloid fusion protein [1] | increase in adhesion after asymmetric oxidation ([1]; after tc=60 min contact time) [%] | decrease in cohesion after symmetric periodate oxidation ([1]; contact times ≤tc=10 min, rebounded after tc=60 min) [%] | adhesion energy Wad after periodate oxidation ([1]; cross-linked films on mica, tc=12 h compressive contact) [mJ m^−2] | thin film thickness ([1]; post-oxidation, crosslinked films) | cohesion (or adhesion) energy Wc ([1]; symmetric films adsorbed from 5 mM, DI water, mica) [mJ m^−2] | work of adhesion before periodate ([1]; uncross-linked films on mica) [mJ m^−2] | E1/2 [2] [V] | oxidation peak [2, 4] [mV] | reduction peak [2, 4] [mV] | interfacial energy Wad between silica bead and SAM [3] [mJ/m^2] | effect of sodium periodate treatment on cohesion ([1]; 500 pmoles periodate) | cohesion energy Wc between SAMs ([1]; 5 mM in DI water, mica) | effect of aqueous Fe3+ on cohesion ([1]; CFe3+=10 M as printed) | hard-wall thickness ([1]; SAMs from 5 mM, mica) [nm] | cohesion energy Wc before and after periodate and iron treatments ([1]; SAMs on mica) [mJ/m^2] | molecular density on mica ([1]; from cohesion energy and π-π interaction) | stability in water to oxidation (shelf life) ([2]; 5 mM in DI water) | oxidation peak ([2]; 5 mM in degassed DI water, 1 mV s−1) [mV]
1 | CN(C)CCOP(=O)(O)OCCCc1ccc(O)c(O)c1 [Z-Cat-C10] | 2-3 fold | 50 | 50 | ~50 | 2-4 nm | 10.1±2.3 | ~20 | ~0.25 | 530 | 316 |  |  |  |  |  |  |  |  | 
2 | C[N+](C)(CCCc1ccccc1)CCOP(=O)([O-])OCCCc1ccc(O)c(O)c1 [Z-Cat-Ben] |  |  |  |  |  |  |  | 0.418 |  |  | ~0.07 | same before and after | 19±3 mJ/m^2 and 18.7±2.8 mJ/m^2 | not affected | ~1 | ~20 | 1.07×10^18 molecules per m^2 | stable (shelf life) in water to oxidation | 840
